Source: PMC6437697 (Journal of Medicinal Chemistry, 2019)

How the values were obtained:
Assay in all cases: KINOMEscan
Format in all cases: binding
Details in all cases: read-out: % control activity remaining
ACVR2B = biological target: T1, ACVR2B (Homo sapiens, UniProt Q13705)
T1 construct: purchased Eurofins DiscoverX KINOMEscan

FLT4 = biological target: T2, FLT4 (Homo sapiens, UniProt P35916)
T2 construct: purchased Eurofins DiscoverX KINOMEscan

INSR = biological target: T3, INSR (Homo sapiens, UniProt P06213)
T3 construct: purchased Eurofins DiscoverX KINOMEscan
T3 sequence (P06213 28-1382): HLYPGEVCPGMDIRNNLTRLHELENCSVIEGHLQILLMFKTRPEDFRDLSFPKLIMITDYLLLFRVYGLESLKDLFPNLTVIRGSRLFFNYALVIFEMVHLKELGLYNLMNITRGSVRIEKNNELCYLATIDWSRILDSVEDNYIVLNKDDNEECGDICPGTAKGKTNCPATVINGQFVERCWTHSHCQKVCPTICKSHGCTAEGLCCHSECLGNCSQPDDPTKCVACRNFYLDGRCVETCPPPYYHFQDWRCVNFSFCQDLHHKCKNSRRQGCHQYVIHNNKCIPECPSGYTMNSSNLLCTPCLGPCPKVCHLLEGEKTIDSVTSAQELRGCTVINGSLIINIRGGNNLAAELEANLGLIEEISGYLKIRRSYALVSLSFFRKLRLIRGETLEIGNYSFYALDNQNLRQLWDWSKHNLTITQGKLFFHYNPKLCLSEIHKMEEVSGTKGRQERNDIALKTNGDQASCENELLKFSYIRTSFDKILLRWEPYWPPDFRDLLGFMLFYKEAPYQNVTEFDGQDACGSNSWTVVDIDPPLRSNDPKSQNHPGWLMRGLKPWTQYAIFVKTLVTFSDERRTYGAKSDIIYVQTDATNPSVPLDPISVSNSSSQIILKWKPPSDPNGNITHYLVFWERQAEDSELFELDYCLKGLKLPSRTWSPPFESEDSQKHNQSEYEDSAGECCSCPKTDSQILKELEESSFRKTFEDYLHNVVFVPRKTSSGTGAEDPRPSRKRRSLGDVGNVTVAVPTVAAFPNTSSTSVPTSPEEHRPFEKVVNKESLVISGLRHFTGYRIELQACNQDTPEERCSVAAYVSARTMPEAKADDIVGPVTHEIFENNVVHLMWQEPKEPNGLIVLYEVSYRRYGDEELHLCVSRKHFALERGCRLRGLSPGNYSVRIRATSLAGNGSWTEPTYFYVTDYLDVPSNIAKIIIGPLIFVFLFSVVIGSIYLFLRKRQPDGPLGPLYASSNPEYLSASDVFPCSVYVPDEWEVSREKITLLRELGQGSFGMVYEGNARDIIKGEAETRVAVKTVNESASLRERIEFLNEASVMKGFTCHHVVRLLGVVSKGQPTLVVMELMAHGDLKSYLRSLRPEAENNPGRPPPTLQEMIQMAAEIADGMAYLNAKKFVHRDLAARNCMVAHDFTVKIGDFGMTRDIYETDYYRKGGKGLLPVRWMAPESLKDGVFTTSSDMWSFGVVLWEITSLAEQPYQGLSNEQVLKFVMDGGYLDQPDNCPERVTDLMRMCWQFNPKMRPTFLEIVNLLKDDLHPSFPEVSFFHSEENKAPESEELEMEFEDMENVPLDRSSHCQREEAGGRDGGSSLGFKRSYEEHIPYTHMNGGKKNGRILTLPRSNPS

MAK = biological target: T4, MAK (Homo sapiens, UniProt P20794)
T4 construct: purchased Eurofins DiscoverX KINOMEscan
T4 sequence (P20794 1-623): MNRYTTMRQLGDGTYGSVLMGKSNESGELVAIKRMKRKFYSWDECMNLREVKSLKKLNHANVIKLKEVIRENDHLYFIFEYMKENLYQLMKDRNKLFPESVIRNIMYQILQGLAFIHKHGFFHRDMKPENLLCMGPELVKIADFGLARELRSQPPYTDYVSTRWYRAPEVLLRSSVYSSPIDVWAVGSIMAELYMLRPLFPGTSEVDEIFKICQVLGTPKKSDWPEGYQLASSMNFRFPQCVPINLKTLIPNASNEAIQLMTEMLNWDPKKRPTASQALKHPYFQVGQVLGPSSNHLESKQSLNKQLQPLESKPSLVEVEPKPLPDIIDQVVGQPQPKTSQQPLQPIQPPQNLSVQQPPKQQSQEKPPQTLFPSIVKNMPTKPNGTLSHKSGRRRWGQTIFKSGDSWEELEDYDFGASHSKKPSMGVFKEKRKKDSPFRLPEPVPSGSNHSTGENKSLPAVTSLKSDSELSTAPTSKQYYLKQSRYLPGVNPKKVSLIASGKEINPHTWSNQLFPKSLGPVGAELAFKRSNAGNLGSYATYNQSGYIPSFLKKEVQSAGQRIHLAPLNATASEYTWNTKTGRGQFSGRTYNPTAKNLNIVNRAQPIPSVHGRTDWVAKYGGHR

MAPKAPK2 = biological target: T5, MAPKAPK2 (Homo sapiens, UniProt P49137)
T5 construct: purchased Eurofins DiscoverX KINOMEscan

MEK4 = biological target: T6, MEK4 (Homo sapiens, UniProt P45985)
T6 construct: purchased Eurofins DiscoverX KINOMEscan
T6 sequence (P45985 1-399): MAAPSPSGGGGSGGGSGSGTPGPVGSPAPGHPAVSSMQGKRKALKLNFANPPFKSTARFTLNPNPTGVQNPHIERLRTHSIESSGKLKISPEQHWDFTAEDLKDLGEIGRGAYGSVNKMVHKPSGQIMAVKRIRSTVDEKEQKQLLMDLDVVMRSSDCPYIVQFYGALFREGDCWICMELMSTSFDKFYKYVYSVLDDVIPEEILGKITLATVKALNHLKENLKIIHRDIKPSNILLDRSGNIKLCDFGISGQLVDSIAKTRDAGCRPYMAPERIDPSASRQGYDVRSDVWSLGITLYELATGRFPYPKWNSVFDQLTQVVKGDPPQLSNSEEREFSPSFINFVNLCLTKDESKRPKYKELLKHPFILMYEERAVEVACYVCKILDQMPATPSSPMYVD

MET(M1250T) = biological target: T7, MET(M1250T) (Homo sapiens, UniProt P08581, M1250T)
T7 construct: purchased Eurofins DiscoverX KINOMEscan
T7 sequence (P08581 25-1390 M1250T): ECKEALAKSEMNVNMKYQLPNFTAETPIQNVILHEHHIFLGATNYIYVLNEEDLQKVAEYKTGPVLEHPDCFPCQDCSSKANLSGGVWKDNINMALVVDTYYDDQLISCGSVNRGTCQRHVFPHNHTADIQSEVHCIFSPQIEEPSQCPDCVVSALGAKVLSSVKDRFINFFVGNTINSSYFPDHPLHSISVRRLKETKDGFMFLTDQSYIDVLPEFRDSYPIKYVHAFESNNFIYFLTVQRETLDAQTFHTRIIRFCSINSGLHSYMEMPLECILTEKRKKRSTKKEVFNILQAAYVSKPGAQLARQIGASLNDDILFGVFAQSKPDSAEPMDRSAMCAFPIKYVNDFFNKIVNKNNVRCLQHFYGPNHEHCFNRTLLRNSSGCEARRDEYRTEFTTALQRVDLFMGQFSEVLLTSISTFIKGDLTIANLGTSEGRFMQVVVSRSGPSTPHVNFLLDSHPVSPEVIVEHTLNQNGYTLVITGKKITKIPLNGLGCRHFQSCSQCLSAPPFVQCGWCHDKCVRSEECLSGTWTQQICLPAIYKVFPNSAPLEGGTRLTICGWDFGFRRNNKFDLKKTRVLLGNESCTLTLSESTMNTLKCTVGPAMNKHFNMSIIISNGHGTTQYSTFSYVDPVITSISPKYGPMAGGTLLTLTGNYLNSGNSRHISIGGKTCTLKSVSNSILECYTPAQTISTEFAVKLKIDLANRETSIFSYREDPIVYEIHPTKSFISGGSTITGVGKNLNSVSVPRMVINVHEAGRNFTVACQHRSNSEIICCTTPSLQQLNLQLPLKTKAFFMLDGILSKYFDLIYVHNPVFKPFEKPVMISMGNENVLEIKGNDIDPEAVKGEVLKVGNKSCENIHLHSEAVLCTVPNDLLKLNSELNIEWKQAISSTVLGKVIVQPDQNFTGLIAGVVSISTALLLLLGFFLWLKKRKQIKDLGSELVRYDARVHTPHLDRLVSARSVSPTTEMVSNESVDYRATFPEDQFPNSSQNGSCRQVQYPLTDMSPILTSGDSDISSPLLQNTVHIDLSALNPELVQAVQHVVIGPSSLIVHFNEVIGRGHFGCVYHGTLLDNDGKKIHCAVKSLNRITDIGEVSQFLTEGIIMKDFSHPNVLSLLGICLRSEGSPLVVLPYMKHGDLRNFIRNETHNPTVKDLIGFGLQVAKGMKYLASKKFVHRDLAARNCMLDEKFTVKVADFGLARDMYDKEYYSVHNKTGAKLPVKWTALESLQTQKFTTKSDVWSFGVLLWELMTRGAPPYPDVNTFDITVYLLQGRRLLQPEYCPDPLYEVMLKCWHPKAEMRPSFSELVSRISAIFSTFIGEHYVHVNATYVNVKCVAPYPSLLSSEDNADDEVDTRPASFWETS

MLK1 = biological target: T8, MLK1 (Homo sapiens, UniProt P80192)
T8 construct: purchased Eurofins DiscoverX KINOMEscan

MRCKB = biological target: T9, MRCKB (Homo sapiens, UniProt Q9Y5S2)
T9 construct: purchased Eurofins DiscoverX KINOMEscan

PIK3CA = biological target: T10, PIK3CA (Homo sapiens, UniProt P42336)
T10 construct: purchased Eurofins DiscoverX KINOMEscan
T10 sequence (P42336 whole entry): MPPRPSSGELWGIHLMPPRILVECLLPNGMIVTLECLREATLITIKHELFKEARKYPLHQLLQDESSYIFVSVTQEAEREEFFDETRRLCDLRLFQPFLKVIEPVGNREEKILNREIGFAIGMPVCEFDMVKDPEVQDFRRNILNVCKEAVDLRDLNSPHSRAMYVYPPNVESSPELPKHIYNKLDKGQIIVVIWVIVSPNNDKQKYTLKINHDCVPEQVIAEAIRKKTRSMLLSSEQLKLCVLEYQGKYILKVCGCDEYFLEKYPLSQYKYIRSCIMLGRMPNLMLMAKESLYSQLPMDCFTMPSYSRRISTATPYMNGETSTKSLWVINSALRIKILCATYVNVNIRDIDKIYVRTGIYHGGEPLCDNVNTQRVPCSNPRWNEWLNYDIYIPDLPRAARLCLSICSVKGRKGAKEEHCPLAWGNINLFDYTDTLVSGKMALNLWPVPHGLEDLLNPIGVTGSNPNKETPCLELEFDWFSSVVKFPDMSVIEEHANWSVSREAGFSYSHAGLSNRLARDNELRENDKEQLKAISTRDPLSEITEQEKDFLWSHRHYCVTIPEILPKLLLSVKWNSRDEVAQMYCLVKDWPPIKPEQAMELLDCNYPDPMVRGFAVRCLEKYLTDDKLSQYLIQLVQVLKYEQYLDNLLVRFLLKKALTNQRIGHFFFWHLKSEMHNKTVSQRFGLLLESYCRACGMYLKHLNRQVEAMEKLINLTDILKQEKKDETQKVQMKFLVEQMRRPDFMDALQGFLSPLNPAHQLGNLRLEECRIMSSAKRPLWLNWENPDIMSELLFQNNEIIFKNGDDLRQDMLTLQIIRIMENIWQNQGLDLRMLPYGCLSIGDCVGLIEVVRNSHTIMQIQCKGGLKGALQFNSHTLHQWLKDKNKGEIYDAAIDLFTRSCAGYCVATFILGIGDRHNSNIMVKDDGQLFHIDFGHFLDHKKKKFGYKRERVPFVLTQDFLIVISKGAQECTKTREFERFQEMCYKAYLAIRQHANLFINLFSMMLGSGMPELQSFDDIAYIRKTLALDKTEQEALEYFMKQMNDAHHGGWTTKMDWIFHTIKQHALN

PIK3CA(H1047L) = biological target: T11, PIK3CA(H1047L) (Homo sapiens, UniProt P42336, H1047L)
T11 construct: purchased Eurofins DiscoverX KINOMEscan
T11 sequence (P42336 whole entry H1047L): as the sequence (P42336 whole entry) above, with H1047L counted along it

RET(V804L) = biological target: T12, RET(V804L) (Homo sapiens, UniProt P07949, V804L)
T12 construct: purchased Eurofins DiscoverX KINOMEscan
T12 sequence (P07949 29-1114 V804L): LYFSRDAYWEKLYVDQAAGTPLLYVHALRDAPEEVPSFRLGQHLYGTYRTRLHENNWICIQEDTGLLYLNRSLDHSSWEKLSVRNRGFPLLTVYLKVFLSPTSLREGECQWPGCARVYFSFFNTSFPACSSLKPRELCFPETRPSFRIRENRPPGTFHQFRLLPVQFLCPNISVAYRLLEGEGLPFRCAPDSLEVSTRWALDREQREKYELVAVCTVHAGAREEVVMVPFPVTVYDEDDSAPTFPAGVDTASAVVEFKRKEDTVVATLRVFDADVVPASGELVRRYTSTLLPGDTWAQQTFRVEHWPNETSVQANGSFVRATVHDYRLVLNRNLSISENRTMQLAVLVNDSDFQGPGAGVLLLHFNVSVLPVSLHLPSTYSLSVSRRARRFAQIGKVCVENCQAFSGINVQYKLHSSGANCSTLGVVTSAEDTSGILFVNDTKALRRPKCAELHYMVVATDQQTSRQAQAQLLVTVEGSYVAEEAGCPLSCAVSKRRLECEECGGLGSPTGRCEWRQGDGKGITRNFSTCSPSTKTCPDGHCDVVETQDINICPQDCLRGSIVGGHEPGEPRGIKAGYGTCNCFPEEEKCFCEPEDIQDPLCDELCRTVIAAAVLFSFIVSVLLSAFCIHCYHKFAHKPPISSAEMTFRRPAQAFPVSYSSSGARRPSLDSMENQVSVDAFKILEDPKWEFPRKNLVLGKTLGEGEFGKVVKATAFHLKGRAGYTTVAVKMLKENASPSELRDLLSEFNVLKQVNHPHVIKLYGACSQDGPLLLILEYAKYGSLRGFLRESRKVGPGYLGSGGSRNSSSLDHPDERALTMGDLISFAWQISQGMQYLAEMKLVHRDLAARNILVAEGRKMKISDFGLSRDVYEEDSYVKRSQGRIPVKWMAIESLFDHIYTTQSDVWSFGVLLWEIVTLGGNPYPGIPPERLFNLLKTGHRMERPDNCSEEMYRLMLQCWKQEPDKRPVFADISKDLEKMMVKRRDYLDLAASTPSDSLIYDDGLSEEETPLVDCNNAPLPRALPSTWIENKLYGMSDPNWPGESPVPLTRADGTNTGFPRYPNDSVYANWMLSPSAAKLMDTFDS

TRKC = biological target: T13, TRKC (Homo sapiens, UniProt Q16288)
T13 construct: purchased Eurofins DiscoverX KINOMEscan

TTK = biological target: T14, TTK (Homo sapiens, UniProt P33981)
T14 construct: purchased Eurofins DiscoverX KINOMEscan
T14 sequence (P33981 1-857): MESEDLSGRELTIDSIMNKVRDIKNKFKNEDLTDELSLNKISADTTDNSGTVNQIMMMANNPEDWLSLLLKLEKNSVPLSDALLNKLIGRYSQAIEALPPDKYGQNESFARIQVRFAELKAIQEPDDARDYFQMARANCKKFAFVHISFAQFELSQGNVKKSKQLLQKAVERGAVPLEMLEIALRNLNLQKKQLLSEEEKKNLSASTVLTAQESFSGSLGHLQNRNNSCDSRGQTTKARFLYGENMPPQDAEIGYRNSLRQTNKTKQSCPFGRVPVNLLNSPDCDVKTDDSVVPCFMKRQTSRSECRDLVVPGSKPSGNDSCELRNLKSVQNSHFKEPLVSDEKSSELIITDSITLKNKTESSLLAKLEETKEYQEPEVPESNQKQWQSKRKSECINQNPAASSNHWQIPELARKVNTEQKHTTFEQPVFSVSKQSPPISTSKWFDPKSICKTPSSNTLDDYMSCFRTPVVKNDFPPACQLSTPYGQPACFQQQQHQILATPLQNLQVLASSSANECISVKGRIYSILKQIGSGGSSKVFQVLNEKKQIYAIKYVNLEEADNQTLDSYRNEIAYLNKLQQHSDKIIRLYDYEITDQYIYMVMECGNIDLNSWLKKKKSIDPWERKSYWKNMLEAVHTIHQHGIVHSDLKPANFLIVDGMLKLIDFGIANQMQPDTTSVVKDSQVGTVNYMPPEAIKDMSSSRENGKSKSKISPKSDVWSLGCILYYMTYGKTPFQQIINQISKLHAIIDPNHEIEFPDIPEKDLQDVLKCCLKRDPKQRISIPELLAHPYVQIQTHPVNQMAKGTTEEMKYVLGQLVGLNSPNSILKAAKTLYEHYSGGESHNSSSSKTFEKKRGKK

SMILES | remaining binding at 1 µM (ACVR2B) | remaining binding at 1 µM (FLT4) | remaining binding at 1 µM (INSR) | remaining binding at 1 µM (MAK) | remaining binding at 1 µM (MAPKAPK2) | remaining binding at 1 µM (MEK4) | remaining binding at 1 µM (MET(M1250T)) | remaining binding at 1 µM (MLK1) | remaining binding at 1 µM (MRCKB) | remaining binding at 1 µM (PIK3CA) | remaining binding at 1 µM (PIK3CA(H1047L)) | remaining binding at 1 µM (RET(V804L)) | remaining binding at 1 µM (TRKC) | remaining binding at 1 µM (TTK)
CN1CCC(CNc2cc(Cl)nn3c(-c4cc5nc(Nc6ccccc6)[nH]c5cc4F)cnc23)CC1 [compound 31, 6-Chloro-3-(6-fluoro-2-(phenylamino)-1H-benzo[d]imidazol-5-yl)-N-((1-methylpiperidin-4-yl)methyl)imidazo[1,2-b]pyridazin-8-amine] | 100% | 100% | 97% | 69% | 100% | 100% | 98% | 93% | 100% | 90% | 70% | 92% | 100% | 90%
O=C(CN1CCOCC1)N[C@H]1CC[C@H](Nc2cc(Cl)nn3c(-c4ccc5[nH]ncc5c4)cnc23)CC1 [compound 26] | 99% | 83% | 91% | 61% | 100% | 100% | 82% | 100% | 97% | 97% | 98% | 88% | 100% | 54%
Clc1cc(NCC2CC2)c2ncc(-c3ccc4[nH]ncc4c3)n2n1 [compound 2, 6-Chloro-N-(cyclopropylmethyl)-3-(1H-indazol-5-yl)imidazo[1,2-b]pyridazin-8-amine] | 100% | 95% | 99% | 82% | 92% | 75% | 89% | 85% | 64% | 72% | 95% | 100% | 87% | 77%
